PubChem BioAssay (NCI)
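These data come from cells grown in 96-well plates and exposed to compound for 48 hours at five concentrations. Abbreviation: GI50, concentration required for 50% inhibition of growth. At the TGI there is no net growth.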

Legend:
Assay in all cases: NCI-60 cell line screen, 48 h
MCF7 breast = test system: MCF7 breast
HCT-116 colon = test system: HCT-116 colon
HCC-2998 colon = test system: HCC-2998 colon
HS 578T breast = test system: HS 578T breast
NCI-H522 lung = test system: NCI-H522 lung
NCI/ADR-RES ovarian = test system: NCI/ADR-RES ovarian
CCRF-CEM leukemia = test system: CCRF-CEM leukemia
TK-10 renal = test system: TK-10 renal
UACC-257 melanoma = test system: UACC-257 melanoma
A498 renal = test system: A498 renal
SF-295 CNS = test system: SF-295 CNS
SR leukemia = test system: SR leukemia
T-47D breast = test system: T-47D breast
SW-620 colon = test system: SW-620 colon
SK-MEL-2 melanoma = test system: SK-MEL-2 melanoma
SK-MEL-28 melanoma = test system: SK-MEL-28 melanoma
M14 melanoma = test system: M14 melanoma
NCI-H226 lung = test system: NCI-H226 lung
UO-31 renal = test system: UO-31 renal
LOX IMVI melanoma = test system: LOX IMVI melanoma
HOP-62 NSCLC = test system: HOP-62 NSCLC
ACHN renal = test system: ACHN renal
RXF 393 renal = test system: RXF 393 renal
CAKI-1 renal = test system: CAKI-1 renal
BT-549 breast = test system: BT-549 breast
OVCAR-5 ovarian = test system: OVCAR-5 ovarian
NCI-H460 lung = test system: NCI-H460 lung
A549 NSCLC = test system: A549 NSCLC
SK-OV-3 ovarian = test system: SK-OV-3 ovarian
KM12 colon = test system: KM12 colon
SNB-19 CNS = test system: SNB-19 CNS
MDA-MB-231 breast = test system: MDA-MB-231 breast
MOLT-4 leukemia = test system: MOLT-4 leukemia
UACC-62 melanoma = test system: UACC-62 melanoma
SK-MEL-5 melanoma = test system: SK-MEL-5 melanoma
SN12C renal = test system: SN12C renal
PC-3 prostate = test system: PC-3 prostate
K-562 leukemia = test system: K-562 leukemia
SF-268 CNS = test system: SF-268 CNS
HOP-92 NSCLC = test system: HOP-92 NSCLC
HT29 colon = test system: HT29 colon
OVCAR-3 ovarian = test system: OVCAR-3 ovarian
HL-60(TB) leukemia = test system: HL-60(TB) leukemia
U251 CNS = test system: U251 CNS
IGROV1 ovarian = test system: IGROV1 ovarian
SF-539 CNS = test system: SF-539 CNS
MALME-3M melanoma = test system: MALME-3M melanoma
RPMI-8226 leukemia = test system: RPMI-8226 leukemia
SNB-75 CNS = test system: SNB-75 CNS
OVCAR-8 ovarian = test system: OVCAR-8 ovarian
786-0 renal = test system: 786-0 renal
COLO 205 colon = test system: COLO 205 colon
MDA-MB-435 = test system: MDA-MB-435
EKVX NSCLC = test system: EKVX NSCLC
DU-145 prostate = test system: DU-145 prostate
OVCAR-4 ovarian = test system: OVCAR-4 ovarian
HCT-15 colon = test system: HCT-15 colon

COc1cc(OC)c(S(N)(=O)=O)cc1C(=O)/C=C/c1ccc(C)cc1
GI50 (MCF7 breast): 2.48 µM | TGI (MCF7 breast): 12.4 µM | GI50 (HCT-116 colon): 3.06 µM | TGI (HCT-116 colon): 12.2 µM | GI50 (HCC-2998 colon): 2.39 µM | TGI (HCC-2998 colon): 5.47 µM | GI50 (HS 578T breast): 3.5 µM | TGI (HS 578T breast): 35.8 µM | GI50 (NCI-H522 lung): 2.48 µM | TGI (NCI-H522 lung): 8.03 µM | GI50 (NCI/ADR-RES ovarian): 5.25 µM | TGI (NCI/ADR-RES ovarian): 49.2 µM | GI50 (CCRF-CEM leukemia): 3.99 µM | TGI (CCRF-CEM leukemia): > 100 µM | GI50 (TK-10 renal): 3.41 µM | TGI (TK-10 renal): 12.3 µM | GI50 (UACC-257 melanoma): 3.86 µM | TGI (UACC-257 melanoma): 15.9 µM | GI50 (A498 renal): 16.2 µM | TGI (A498 renal): 30.7 µM | GI50 (SF-295 CNS): 3.89 µM | TGI (SF-295 CNS): 11.5 µM | GI50 (SR leukemia): 2.26 µM | TGI (SR leukemia): 12.9 µM | GI50 (T-47D breast): 2.32 µM | TGI (T-47D breast): 7.55 µM | GI50 (SW-620 colon): 3.43 µM | TGI (SW-620 colon): 12.6 µM | GI50 (SK-MEL-2 melanoma): 11.5 µM | TGI (SK-MEL-2 melanoma): 25.3 µM | GI50 (SK-MEL-28 melanoma): 4.09 µM | TGI (SK-MEL-28 melanoma): 15.3 µM | GI50 (M14 melanoma): 3.25 µM | TGI (M14 melanoma): 13 µM | GI50 (NCI-H226 lung): 4.14 µM | TGI (NCI-H226 lung): 19.3 µM | GI50 (UO-31 renal): 3.46 µM | TGI (UO-31 renal): 14.5 µM | GI50 (LOX IMVI melanoma): 0.543 µM | TGI (LOX IMVI melanoma): 5.01 µM | GI50 (HOP-62 NSCLC): 2.9 µM | TGI (HOP-62 NSCLC): 7.72 µM | GI50 (ACHN renal): 3.86 µM | TGI (ACHN renal): 13.9 µM | GI50 (RXF 393 renal): 2.24 µM | TGI (RXF 393 renal): 6.06 µM | GI50 (CAKI-1 renal): 2.42 µM | TGI (CAKI-1 renal): 12.4 µM | GI50 (BT-549 breast): 2.18 µM | TGI (BT-549 breast): 6.79 µM | GI50 (OVCAR-5 ovarian): 2.57 µM | TGI (OVCAR-5 ovarian): 7.12 µM | GI50 (NCI-H460 lung): 2.24 µM | TGI (NCI-H460 lung): 5.65 µM | GI50 (A549 NSCLC): 2.75 µM | TGI (A549 NSCLC): 10.3 µM | GI50 (SK-OV-3 ovarian): 3.18 µM | TGI (SK-OV-3 ovarian): 9.43 µM | GI50 (KM12 colon): 3.13 µM | TGI (KM12 colon): 14.5 µM | GI50 (SNB-19 CNS): 3.65 µM | TGI (SNB-19 CNS): 15.1 µM | GI50 (MDA-MB-231 breast): 3.41 µM | TGI (MDA-MB-231 breast): 12.5 µM | GI50 (MOLT-4 leukemia): 3.07 µM | TGI (MOLT-4 leukemia): 29.6 µM | GI50 (UACC-62 melanoma): 3.63 µM | TGI (UACC-62 melanoma): 15.2 µM | GI50 (SK-MEL-5 melanoma): 7.81 µM | TGI (SK-MEL-5 melanoma): 21.1 µM | GI50 (SN12C renal): 2.95 µM | TGI (SN12C renal): 11.4 µM | GI50 (PC-3 prostate): 3.42 µM | TGI (PC-3 prostate): 14.4 µM | GI50 (K-562 leukemia): 2.43 µM | TGI (K-562 leukemia): > 100 µM | GI50 (SF-268 CNS): 3.2 µM | TGI (SF-268 CNS): 19.8 µM | GI50 (HOP-92 NSCLC): 2.3 µM | TGI (HOP-92 NSCLC): 7.45 µM | GI50 (HT29 colon): 3.5 µM | TGI (HT29 colon): 10.1 µM | GI50 (OVCAR-3 ovarian): 3.05 µM | TGI (OVCAR-3 ovarian): 12.6 µM | GI50 (HL-60(TB) leukemia): 2.52 µM | TGI (HL-60(TB) leukemia): 15.8 µM | GI50 (U251 CNS): 2.66 µM | TGI (U251 CNS): 10.1 µM | GI50 (IGROV1 ovarian): 3.56 µM | TGI (IGROV1 ovarian): 14.4 µM | GI50 (SF-539 CNS): 2.17 µM | TGI (SF-539 CNS): 5.05 µM | GI50 (MALME-3M melanoma): 8.55 µM | TGI (MALME-3M melanoma): 23.6 µM | GI50 (RPMI-8226 leukemia): 3.2 µM | TGI (RPMI-8226 leukemia): 24.7 µM | GI50 (SNB-75 CNS): 1.84 µM | TGI (SNB-75 CNS): 5.09 µM | GI50 (OVCAR-8 ovarian): 2.17 µM | TGI (OVCAR-8 ovarian): 5.19 µM | GI50 (786-0 renal): 3.85 µM | TGI (786-0 renal): 22.3 µM | GI50 (COLO 205 colon): 3.33 µM | TGI (COLO 205 colon): 9.26 µM | GI50 (MDA-MB-435): 2.27 µM | TGI (MDA-MB-435): 6.72 µM | GI50 (EKVX NSCLC): 4.33 µM | TGI (EKVX NSCLC): 16.4 µM | GI50 (DU-145 prostate): 4.23 µM | TGI (DU-145 prostate): 18.9 µM | GI50 (OVCAR-4 ovarian): 3.66 µM | TGI (OVCAR-4 ovarian): 16.3 µM | GI50 (HCT-15 colon): 2.56 µM | TGI (HCT-15 colon): 12.9 µM
